Measurements published in patent publication US8586611B2 (priority 2005, dated 2013).

Experiments:
Assay type in all cases: in vivo
[1] = test system: Erysiphe graminis f. sp. tritici; assay: Test E: wheat powdery mildew, spray the day before inoculation (disease rating, 100 = 100% disease control)
Summary of the method: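 Protective test: spores of E. graminis f. sp. tritici dusted on wheat seedlings one day after run-off spraying of test suspension (acetone/water with 250 ppm surfactant; 200 ppm = 500 g/ha). Ratings after 7 days in growth chamber at 20° C, 100 = full control, 0 = none, relative to controls.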

[2] = test system: Phytophthora infestans; assay: whole plant or invertebrate; conditions: tomato late blight
[3] = test system: Plasmopara viticola; assay: Test B: grape downy mildew, spray 24 h after inoculation (disease rating, 100 = 100% disease control)
Summary of the method: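 This is a curative spray test, applied 24 h after inoculation. Compounds in 50/50 acetone–water with 250 ppm Trem 014 surfactant were sprayed to run-off on P. viticola-infected seedlings, with 200 ppm equating to 500 g/ha. Plants were kept 5 days in a 20 °C growth chamber, then 24 h humid, and scored 0–100 for disease control relative to controls.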

[4] = test system: Pseudoperonospora cubensis; assay: Test A: cucumber downy mildew, spray the day before inoculation (disease rating, 100 = 100% disease control)
Description: The test compounds were first dissolved in acetone in an amount equal to 3% of the final volume and then suspended at the desired concentration (in ppm) in acetone and purified water (50/50 mix by volume) containing 250 ppm of the surfactant Trem® 014 (polyhydric alcohol esters). The resulting test suspensions were then used in tests A-E. Spraying a 200 ppm test suspension to the point of run-off on the test plants was the equivalent of a rate of 500 g/ha.
(§1) The test suspension was sprayed to the point of run-off on cucumber seedlings. The following day the seedlings were inoculated with a spore suspension of Pseudoperonospora cubensis (the causal agent of cucumber downy mildew) and incubated in a saturated atmosphere at 20° C. for 24 h, and then moved to a growth chamber at 20° C. for 6 days, after which disease ratings were made.
(§2) Results for Tests A-F are given in Table A. In the table, a rating of 100 indicates 100% disease control and a rating of 0 indicates no disease control (relative to the controls). A dash (-) indicates no test results.

[5] = test system: Pseudoperonospora cubensis; assay: Test F: cucumber downy mildew, DMSO/acetone/water test suspension, spray the day before inoculation (disease rating, 100 = 100% disease control); conditions: DMSO/acetone/water suspension, spray the day before inoculation, compounds without asterisk
Description: The test compounds were first dissolved in dimethyl sulfoxide (DMSO) in an amount equal to 4% of the final volume and then suspended at the desired concentration (in ppm) in acetone and purified water (30/70 mix by volume). The resulting test suspensions were then used in test F. Spraying a 250 ppm test suspension on the test plants was the equivalent of a rate of 250 g/ha.
as §1, with “sprayed” for “sprayed to the point of run-off”
as §2

[6] = test system: Phytophthora infestans; assay: whole plant or invertebrate; conditions: tomato late blight; spray 17 h after inoculation; compounds without asterisk (not 40 or 10 ppm)
[7] = spray the day before inoculation, compounds without asterisk (not 40 or 10 ppm)
[8] = spray 24 h after inoculation, compounds without asterisk (not 40 or 10 ppm)
[9] = sprayed the day before inoculation, 7 days at 20° C., unmarked compounds (no asterisk, not 40 or 10 ppm)
[10] = sprayed the day before inoculation, unmarked compounds (no asterisk, not 40 or 10 ppm)
[11] = sprayed 24 h after inoculation, unmarked compounds (no asterisk, not 40 or 10 ppm)

Molecule	Test E disease rating (100 = 100% disease control, 0 = no disease control) [1, 7] [%]	Test C disease rating (100 = 100% disease control, 0 = no disease control) [2, 7] [%]	Test B disease rating (100 = 100% disease control, 0 = no disease control) [3, 8] [%]	Test A disease rating (100 = 100% disease control, 0 = no disease control) [4, 7] [%]	Test E disease rating (100 = 100% disease control, 0 = no disease control) [1, 9]	Test C disease rating (100 = 100% disease control, 0 = no disease control) [2, 10]	Test B disease rating (100 = 100% disease control, 0 = no disease control) [3, 11]	Test A disease rating (100 = 100% disease control, 0 = no disease control) [4, 10]	Test F disease rating (100 = 100% disease control, 0 = no disease control) [5] [%]	Test D disease rating (100 = 100% disease control, 0 = no disease control) [6] [%]
2-[1-[[5-chloro-3-(trifluoromethyl)-1H-pyrazol-1-yl]acetyl]-4-piperidinyl]-N-methyl-N-[(1R)-1,2,3,4-tetrahydro-1-naphthalenyl]-4-thiazolecarboxamide [Compound 249]	0	0	0	0						
N-methyl-2-[1-[[5-methyl-3-(trifluoromethyl)-1H-pyrazol-1-yl]acetyl]-4-piperidinyl]-N-[(1R)-1-phenylpropyl]-4-oxazolecarboxamide [Compound 152]	0	0	0	0						
2-[1-[(2,5-dimethylphenyl)acetyl]-4-piperidinyl]-N-methyl-N-[(1R)-1-phenylpropyl]-4-thiazolecarboxamide [Compound 58]	0	56	20	0						
O=C(NCc1ccccc1)c1csc(C2CCN(C(=O)Cc3ccccc3Cl)CC2)n1 [compound 262]					0	52	6	94		
Cc1cc(C)cc(CC(=O)N2CCC(c3nc(C(=O)N(C)[C@H](C)c4ccccc4)cs3)CC2)c1 [compound 43]	21	100	83	100						
O=C(NC1Cc2ccccc2C1)c1csc(C2CCN(C(=O)Cc3ccccc3Cl)CC2)n1 [compound 265]					47	0	34	0		
N-methyl-2-[1-[[5-methyl-3-(trifluoromethyl)-1H-pyrazol-1-yl]acetyl]-4-piperidinyl]-N-(1,2,3,4-tetrahydro-2-methyl-1-naphthalenyl)-4-thiazolecarboxamide [Compound 193]	21	31	20	93						
C[C@@H](NC(=O)c1csc(C2CCN(C(=O)Cc3ccccc3Cl)CC2)n1)c1ccccc1 [compound 261]					21	31	0	93		
2-[1-[(2,5-dimethylphenyl)acetyl]-4-piperidinyl]-N-methyl-N-[(1R)-1,2,3,4-tetrahydro-1-naphthalenyl]-4-oxazolecarboxamide [Compound 153]	0	0	28	82						
Cc1ccc(C(F)(F)F)cc1CC(=O)N1CCC(c2nc(C(=O)N(C)[C@H](C)c3ccccc3)cs2)CC1 [compound 124]	71	100	100						90	0
